Assay results from patent US20220298253A1, “TREATMENT OF RMS BY SWITCHING THERAPY” (Novartis AG, priority 2019, published 2022).
Entries after “also recorded” stand apart in the source; their conditions may differ. Like-named read-outs stand apart in the source and are kept apart here.

Experiments:
[1] = system: MS patients; test: ASCLEPIOS I: loss of thalamus volume; assay type: in vivo, human; details: for thalamus volume, mean percentage change between Month 24 and baseline: ASCLEPIOS I
Procedure: (§1) In ASCLEPIOS I patients were randomised (1:1) to receive either ofatumumab 20 mg sc injections every 4 weeks (after an initial loading regimen of 20 mg sc doses on Days 1, 7 and 14) or teriflunomide 14 mg orally once daily, for up to 30 months. Patients aged 18-55 years with an Expanded Disability Status Scale (EDSS) score (according to Kurtzke, Neurology. 1983, November; 33(11): 1444-52) of 0-5.5 at screening who experienced ≥1 relapse in the past year or ≥2 relapses in the past 2 years or a positive gadolinium-enhancing (Gd+) MM scan during the year before randomisation were included.

[2] = system: MS patients; test: ASCLEPIOS I: MSIS-29 impact score; assay type: in vivo, human
Procedure: The MSIS-29 version 2 is a 29-item, self-administered questionnaire that includes 2 domains: physical and psychological. Responses were captured on a 4-point ordinal scale ranging from 1 (not at all) to 4 (extremely), with higher scores reflecting greater impact on day-to-day life. The MSIS-29 takes about 5 minutes to complete and the questions are designed to determine the patient's views about the impact of MS on their day-to-day life during the past 2 weeks. Reference is made to Hobart J and Cano S (2009), “Improving the evaluation of therapeutic interventions in multiple sclerosis: the role of new psychometric methods”, Health Technol Assess; 13(12):iii, ix-x, […] to Hobart J, Lamping D, Fitzpatrick R, et al (2001), “The Multiple Sclerosis Impact Scale (MSIS-29): a new patient-based outcome measure”, Brain; 124(Pt 5):962-73.
as §1

[3] = system: patients with multiple sclerosis; details: cited from earlier work; for clinical and MRI course after anti-CD20 infusion: case reports, rebound after fingolimod cessation (Hatcher et al. 2016; Schmidt and Schulten 2019)
[4] = system: primary human B cells; test: Ofatumumab-induced CDC of freshly isolated primary human B cells; assay type: cell-based; details: antibody and 30% human serum added simultaneously, 1 hour, flow cytometry; compared to ocrelizumab and rituximab; FIG. 2
[5] = system: primary human B cells; test: CDC after delayed addition of complement; assay type: cell-based; details: cells washed, complement source added after 6 hours; FIG. 3
Procedure: In a second experiment, B cells were incubated with antibody as described before, albeit in the absence of a source of complement. Cells were washed as described previously. After 6 hours, the source of complement was added.

[6] = system: patients with relapsing MS; test: Number of relapses in patients switched from an earlier DMT to ofatumumab (Example 2); assay type: in vivo, human; details: for Mean NURLP12: number of relapses in past 12 months (screening) / Mean NURLP24a: number of relapses in past 24 months (screening): before switch
Procedure: (§2) The effect of ofatumumab administered to patients who have been treated with DMTs other than ofatumumab has been investigated as described below.
(§3) Ofatumumab was provided in pre-filled syringes for subcutaneous administration containing 20 mg ofatumumab (50 mg/ml, 0.4 ml content). The matching placebo to ofatumumab pre-filled syringe had the same appearance as the investigational drug.
(§4) Ofatumumab arm: ofatumumab 20 mg s.c. injections on Day 1, 7, 14, Week 4 (Study Month 1) and every 4 weeks thereafter+teriflunomide-matching placebo capsule orally once daily.
(§5) Eligible patients can be randomized in a 1:1 ratio to either the active ofatumumab 20 mg group or to the active teriflunomide 14 mg group. The randomization was stratified by geographical region and by MS subtype (RRMS, SPMS).
(§6) Diagnosis of MS according to the 2010 Revised McDonald criteria (Polman et al. 2011).
(§7) Relapsing MS: relapsing-remitting course (RRMS), or secondary progressive (SPMS) course with disease activity, as defined by Lublin et al., 2014.
(§8) Disability status at Screening with an EDSS score of 0 to 5.5 (inclusive).
(§9) Patients previously treated with DMT selected from glatiramer acetate, dimethyl fumarate (DMF), daclizumab, fingolimod, natalizumab and laquinimod.
(§10) Documentation of at least: 1 relapse during the previous 1 year OR 2 relapses during the previous 2 years prior to Screening OR a positive Gd-enhancing MM scan during the year prior to randomization. Note: Screening MRI scan may be used if no positive Gd enhancing scan exist from prior year.
(§11) Neurologically stable within 1 month prior to randomization

[7] = system: patients with relapsing MS; test: Gd-enhancing T1 lesion numbers in patients switched from an earlier DMT to ofatumumab (Example 2); assay type: in vivo, human
Procedure: as §2, §3, §4, §5, §6, §7, §8, §9, §10, §11
The following results were obtained for the Gd lesion numbers.

[8] = Half-life of ofatumumab at steady state; assay type: in vivo; details: following subcutaneous administration of repeated 20 mg doses
[9] = system: MS patients; details: cited from earlier work; for reduction in annualized relapse rate (ARR) compared to Aubagio (teriflunomide): p<0.001
[10] = earlier DMT fingolimod, ofatumumab 20 mg s.c.
[11] = earlier DMT fingolimod, ofatumumab 20 mg s.c., listed as OMB

C/C(O)=C(\C#N)C(=O)Nc1ccc(C(F)(F)F)cc1 [teriflunomide, reference compound]
thalamus volume, mean percentage change between Month 24 and baseline [1]: −1.4%
mean change in MSIS-29 physical impact score from baseline ([2]; Month 6): −0.44
mean change in MSIS-29 physical impact score from baseline ([2]; Month 12): 0.17
mean change in MSIS-29 physical impact score from baseline ([2]; Month 18): 0.67
mean change in MSIS-29 physical impact score from baseline ([2]; Month 24): 0.59
mean change in MSIS-29 physical impact score from baseline ([2]; Month 30): 0.55

ocrelizumab: anti-CD20 mAb administered by intravenous infusion
clinical and MRI course after anti-CD20 infusion [3]: clinical worsening and new Gd-enhancing MRI lesions
EDSS course after administration ([3]; two patients, more than 3 months after fingolimod withdrawal, FIG. 1): significant Expanded Disability Status Scale (EDSS) progression

ofatumumab: recombinant human monoclonal immunoglobulin G1 (IgG1) antibody that binds to human CD20
induction of CDC (B cell lysis, SYTOX Blue+ cells) [4]: strong concentration-dependent induction
induction of CDC after delayed addition of complement [5]: potently induced CDC
Mean NCFRLP12: number of relapses up to month 12 post-first dose ([6]; earlier DMT DMF): 0.21
Mean NCFRLP24: number of relapses up to month 24 post-first dose ([6]; earlier DMT DMF): 0.39
Mean NURLP12: number of relapses in past 12 months (screening) ([6]; earlier DMT DMF): 1.11
Mean NURLP24a: number of relapses in past 24 months (screening) ([6]; earlier DMT DMF): 2
Mean NCFRLP12: number of relapses up to month 12 post-first dose ([6]; earlier DMT daclizumab): 0
Mean NCFRLP24: number of relapses up to month 24 post-first dose ([6]; earlier DMT daclizumab): 0
Mean NURLP12: number of relapses in past 12 months (screening) ([6]; earlier DMT daclizumab): 1
Mean NURLP24a: number of relapses in past 24 months (screening) ([6]; earlier DMT daclizumab): 1.18
Mean NURLP12: number of relapses in past 12 months (screening) ([6]; earlier DMT fingolimod): approx. 1.26
Mean NURLP24a: number of relapses in past 24 months (screening) ([6]; earlier DMT fingolimod): 2.28
Mean NURLP12: number of relapses in past 12 months (screening) ([6]; earlier DMT fingolimod, listed as OMB): 1.26
Mean NCFRLP12: number of relapses up to month 12 post-first dose [6, 10]: approx. 0.23
Mean NCFRLP24: number of relapses up to month 24 post-first dose [6, 10]: about 0.30
Mean NCFRLP12: number of relapses up to month 12 post-first dose [6, 11]: 0.23
Mean NCFRLP24: number of relapses up to month 24 post-first dose [6, 11]: 0.31
Mean NCFRLP12: number of relapses up to month 12 post-first dose ([6]; earlier DMT glatiramer acetate): 0.10
Mean NCFRLP24: number of relapses up to month 24 post-first dose ([6]; earlier DMT glatiramer acetate): 0.17
Mean NURLP12: number of relapses in past 12 months (screening) ([6]; earlier DMT glatiramer acetate): 1.21
Mean NURLP24a: number of relapses in past 24 months (screening) ([6]; earlier DMT glatiramer acetate): 2.13
Mean NCFRLP12: number of relapses up to month 12 post-first dose ([6]; earlier DMT natalizumab): 0.13
Mean NCFRLP24: number of relapses up to month 24 post-first dose ([6]; earlier DMT natalizumab): 0.2
Mean NURLP12: number of relapses in past 12 months (screening) ([6]; earlier DMT natalizumab): 1.2
Mean NURLP24a: number of relapses in past 24 months (screening) ([6]; earlier DMT natalizumab): 2.37
Mean Gd lesion number ([7]; earlier DMT DMF, BASELINE): 2.02
Mean Gd lesion number ([7]; earlier DMT DMF, Week 48): 0
Mean Gd lesion number ([7]; earlier DMT DMF, Week 96): 0
Mean Gd lesion number ([7]; earlier DMT daclizumab, BASELINE): 0.18
Mean Gd lesion number ([7]; earlier DMT daclizumab, Week 48): 0
Mean Gd lesion number ([7]; earlier DMT daclizumab, Week 96): 0
Mean Gd lesion number ([7]; earlier DMT fingolimod, BASELINE): 2.95
Mean Gd lesion number ([7]; earlier DMT fingolimod, Week 48): 0.03
Mean Gd lesion number ([7]; earlier DMT fingolimod, Week 96): 0
Mean Gd lesion number ([7]; earlier DMT glatiramer acetate, BASELINE): 1.52
Mean Gd lesion number ([7]; earlier DMT glatiramer acetate, Week 48): 0.02
Mean Gd lesion number ([7]; earlier DMT glatiramer acetate, Week 96): 0.02
Mean Gd lesion number ([7]; earlier DMT natalizumab, BASELINE): 2.5
Mean Gd lesion number ([7]; earlier DMT natalizumab, Week 48): 0.04
Mean Gd lesion number ([7]; earlier DMT natalizumab, Week 96): 0
thalamus volume, mean percentage change between Month 24 and baseline [1]: −1.00%
thalamus volume change, mean difference ofatumumab vs teriflunomide ([1]; Month 24, p=0.002): 0.40
mean change in MSIS-29 physical impact score from baseline ([2]; Month 6): −2.75
MSIS-29 physical impact score, mean difference ofatumumab vs teriflunomide ([2]; Month 6, p=0.017): −2.30
mean change in MSIS-29 physical impact score from baseline ([2]; Month 12): −2.43
MSIS-29 physical impact score, mean difference ofatumumab vs teriflunomide ([2]; Month 12, p=0.009): −2.59
mean change in MSIS-29 physical impact score from baseline ([2]; Month 18): −2.37
MSIS-29 physical impact score, mean difference ofatumumab vs teriflunomide ([2]; Month 18, p=0.005): −3.05
mean change in MSIS-29 physical impact score from baseline ([2]; Month 24): −2.6
MSIS-29 physical impact score, mean difference ofatumumab vs teriflunomide ([2]; Month 24, p=0.008): −3.19
mean change in MSIS-29 physical impact score from baseline ([2]; Month 30): −3.21
MSIS-29 physical impact score, mean difference ofatumumab vs teriflunomide ([2]; Month 30, p=0.026): −3.76
MSIS-29 psychological impact score vs teriflunomide treatment group ([2]; difference statistically significant only at Month 12): stronger reduction
half-life at steady state [8]: approximately 16 days
suppression of gadolinium (Gd) T1 lesions compared to Aubagio ([9]; ASCLEPIOS I/II): highly significant suppression
annualized relapse rate (ARR) ([9]; ASCLEPIOS I): 0.11
reduction in annualized relapse rate (ARR) compared to Aubagio (teriflunomide) ([9]; ASCLEPIOS I): 50.5%
annualized relapse rate (ARR) ([9]; ASCLEPIOS II): 0.10
reduction in annualized relapse rate (ARR) compared to Aubagio (teriflunomide) ([9]; ASCLEPIOS II): 58.5%
relative risk reduction in 3-month confirmed disability progression (CDP) versus Aubagio ([9]; pre-specified pooled analyses, p=0.002): 34.4%
relative risk reduction in 6-month confirmed disability progression (CDP) versus Aubagio ([9]; pre-specified pooled analyses, p=0.012): 32.5%

rituximab: anti-CD20 mAb administered by intravenous infusion
clinical and MRI course after anti-CD20 infusion [3]: clinical worsening; also recorded: persistent Gd-enhancing lesions
